Test results as given in patent US20140038822A1, “USE OF SUBSTITUTED SPIROCYCLIC SULFONAMIDOCARBOXYLIC ACIDS, CARBOXYLIC ESTERS THEREOF, CARBOXAMIDES THEREOF AND CARBONITRILES THEREOF OR SALTS THEREOF FOR ENHANCEMENT OF STRESS TOLERANCE IN PLANTS” (BAYER INTELLECTUAL PROPERTY GMBH, priority 2010, published 2014).

What was measured:
Assay type in all cases: in vivo
BRSNS (Brassica napus) = assay: Drought stress test on crop plants in greenhouse, spray application, efficacy vs untreated stressed control (BRSNS); details: dosage 250 g/ha, mean of three results
Method: (§1) Seeds of monocotyledonous and dicotyledonous crop plants were placed in sandy loam in wood-fiber pots, covered with soil and cultivated in a greenhouse under good growth conditions. The test plants were treated at the early leaf stage (BBCH10 BBCH13). To ensure uniform water supply before commencement of stress, the potted plants were supplied with the maximum amount of water immediately beforehand by dam irrigation and, after application, transferred in plastic inserts in order to prevent subsequent, excessively rapid drying. The inventive compounds, formulated in the form of wettable powders (WP), wettable granules (WG), suspension concentrates (SC) or emulsion concentrates (EC), were sprayed onto the green parts of the plants as an aqueous suspension at an equivalent water application rate of […] with addition of 0.2% wetting agent (agrotin). Substance application is followed immediately by stress treatment of the plants (cold or drought stress). For cold stress treatment, the plants were kept under the following controlled conditions: […]
(§2) After the recovery phase had ended, the intensities of damage were rated in visual comparison to untreated, unstressed controls of the same age (in the case of drought stress) or the same growth stage (in the case of cold stress). The intensity of damage was first assessed as a percentage (100%=plants have died, 0%=like control plants). […]

[1] = tested on: TRZAS (Triticum aestivum); assay: Drought stress test on crop plants in greenhouse, spray application, efficacy vs untreated stressed control (TRZAS); details: dosage 25 g/ha, efficacy = percentage reduction in the intensity of damage vs untreated stressed control, mean of three results
Method: as §1, §2

ZEAMX (Zea mays) = assay: Drought stress test on crop plants in greenhouse, spray application, efficacy vs untreated stressed control (ZEAMX); details: dosage 250 g/ha, efficacy = percentage reduction in the intensity of damage vs untreated stressed control, mean of three results
Method: as §1, §2

COC(=O)C1(NS(=O)(=O)c2ccc(OC)cc2)CCC(OC)CC1 (stereo not drawn) [I.37-87, Methyl 4-methoxy-1-{[(4-methoxyphenyl)sulfonyl]amino}-cyclohexanecarboxylate]
>5%: EF (BRSNS): Efficacy = percentage reduction in the intensity of damage (BRSNS (Brassica napus)) | Efficacy (TRZAS) [1] | EF (ZEAMX) (ZEAMX (Zea mays))
